The values below come from ChEMBL document CHEMBL1275330, “Rational design, synthesis, and evaluation of new selective inhibitors of microbial class II (zinc dependent) fructose bis-phosphate aldolases” (J Med Chem, 2010).

Assay [1] has as its target T1, Fructose-bisphosphate aldolase (Mycobacterium tuberculosis, UniProt P9WQA3).
T1 sequence (P9WQA3 whole entry): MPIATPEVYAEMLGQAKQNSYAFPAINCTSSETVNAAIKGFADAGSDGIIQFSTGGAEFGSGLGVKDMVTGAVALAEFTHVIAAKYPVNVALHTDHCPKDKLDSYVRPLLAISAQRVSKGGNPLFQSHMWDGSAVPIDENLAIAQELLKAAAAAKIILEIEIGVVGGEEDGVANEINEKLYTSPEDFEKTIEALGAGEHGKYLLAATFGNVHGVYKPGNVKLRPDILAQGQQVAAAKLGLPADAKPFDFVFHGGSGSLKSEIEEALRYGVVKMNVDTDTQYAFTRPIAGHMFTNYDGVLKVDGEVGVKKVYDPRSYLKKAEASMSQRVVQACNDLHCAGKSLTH

Assay [2] has as its target T2, Fructose-bisphosphate aldolase class II (Yersinia pestis, UniProt A0A380PJR2).
T2 sequence (A0A380PJR2 whole entry): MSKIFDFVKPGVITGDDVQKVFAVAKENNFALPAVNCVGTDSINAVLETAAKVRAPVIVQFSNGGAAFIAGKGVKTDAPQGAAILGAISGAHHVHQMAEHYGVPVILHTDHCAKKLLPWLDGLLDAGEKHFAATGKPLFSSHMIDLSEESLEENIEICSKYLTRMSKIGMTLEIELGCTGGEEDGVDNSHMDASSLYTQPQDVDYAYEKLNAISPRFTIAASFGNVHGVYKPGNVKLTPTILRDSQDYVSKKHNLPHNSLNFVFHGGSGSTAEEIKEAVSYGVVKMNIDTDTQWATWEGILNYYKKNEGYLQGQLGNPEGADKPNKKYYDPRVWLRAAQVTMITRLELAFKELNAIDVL

The target of assay [3] is T3, Fructose-bisphosphate aldolase (Candida albicans (strain SC5314 / ATCC MYA-2876) (Yeast), UniProt Q9URB4).
T3 sequence (Q9URB4 whole entry): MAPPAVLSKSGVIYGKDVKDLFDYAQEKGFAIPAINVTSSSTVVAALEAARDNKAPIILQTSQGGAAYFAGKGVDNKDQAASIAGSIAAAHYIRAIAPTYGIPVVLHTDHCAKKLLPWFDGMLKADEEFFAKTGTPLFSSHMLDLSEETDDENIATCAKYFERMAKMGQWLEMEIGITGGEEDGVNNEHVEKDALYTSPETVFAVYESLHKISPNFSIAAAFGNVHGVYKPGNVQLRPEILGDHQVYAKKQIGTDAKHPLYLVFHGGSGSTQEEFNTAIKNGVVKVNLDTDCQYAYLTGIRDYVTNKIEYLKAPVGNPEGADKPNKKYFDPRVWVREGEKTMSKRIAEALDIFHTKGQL
Kind of assay: Inhibition of Candida albicans zinc dependent class 2 Fba.

For assay [4], the target named is T4, Fructose-bisphosphate aldolase (Helicobacter pylori (strain ATCC 700392 / 26695) (Campylobacterpylori), UniProt P56109).
T4 sequence (P56109 whole entry): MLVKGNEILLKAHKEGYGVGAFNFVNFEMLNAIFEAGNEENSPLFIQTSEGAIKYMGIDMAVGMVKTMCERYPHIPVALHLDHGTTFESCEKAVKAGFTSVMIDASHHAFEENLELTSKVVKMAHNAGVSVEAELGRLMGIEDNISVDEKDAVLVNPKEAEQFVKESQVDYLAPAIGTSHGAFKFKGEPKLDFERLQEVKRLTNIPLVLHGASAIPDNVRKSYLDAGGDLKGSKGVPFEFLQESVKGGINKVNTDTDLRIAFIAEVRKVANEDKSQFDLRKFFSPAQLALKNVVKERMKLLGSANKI

Assay [5] deals with T5, Fructose-bisphosphate aldolase A (Oryctolagus cuniculus, UniProt P00883).
T5 sequence (P00883 whole entry): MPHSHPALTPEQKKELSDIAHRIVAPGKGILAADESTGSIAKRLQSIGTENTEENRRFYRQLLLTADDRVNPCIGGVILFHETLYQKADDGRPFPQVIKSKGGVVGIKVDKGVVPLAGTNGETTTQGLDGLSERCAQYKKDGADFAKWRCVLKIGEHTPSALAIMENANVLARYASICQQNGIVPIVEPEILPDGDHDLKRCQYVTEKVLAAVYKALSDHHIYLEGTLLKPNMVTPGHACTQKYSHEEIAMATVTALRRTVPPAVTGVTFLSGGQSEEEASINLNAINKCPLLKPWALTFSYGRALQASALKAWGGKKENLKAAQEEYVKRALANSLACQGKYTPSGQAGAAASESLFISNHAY

Structures are written as SMILES. “And” between values parts separate entries of the source, which are not always exact repeats. Identical values can stand only once.

For orientation: Ki means the dissociation constant of the complex between target and ligand, obtained from inhibition or displacement. As to `O=C(COP(=O)(O)O)[C@@H](O)[C@H](O)[C@H](O)COP(=O)(O)O`, the inhibition constant Ki in assay [1] worked out at 21 µM; in assay [2], 55 µM.
Take `O=C(COP(=O)(O)O)N(O)CCCCO`: the Ki in assay [3] was 300 nM and 297 nM.
What is called IC50 is the point on the concentration scale where inhibition reaches its midpoint. Higher therefore signals lower potency. On to `O=C(COP(=O)(O)O)N(O)CCCCOP(=O)(O)O`, for which the IC50 in assay [3] is 4.8 nM; in assay [1], 3.2 nM; in assay [4], 131 nM; in assay [5], 112 µM; in assay [2], 36 nM. For the same molecule, the inhibitory constant (Ki) in assay [3] is 3 nM and 3.25 nM.
As to `O=C(COP(=O)(O)O)N(O)CCCO`, in assay [5], the inhibition constant Ki came out at 2.5 mM.
`CCCCCC(=O)OCCCCN(O)C(=O)COP(=O)(O)O`: in assay [3], the inhibition constant Ki is 280 nM and 276 nM.
`CCCCCCCCCCCC(=O)OCCCCN(O)C(=O)COP(=O)(O)O`: the Ki in assay [3] was 800 nM and 815 nM; in assay [5], 0.067 mM.
